Measured values: PubChem BioAssay AID1963961 (Molecular Pharmacology Branch, DTP, NCI, 2024)
Where “and” joins values, the source holds several entries; their conditions need not be identical. Equal entries are not always repeated.

Test system: K98450-129-R-PDC multicell spheroids, viability
Test: Anticancer human tumor K98450-129-R-PDC patient-derived colon adenocarcinoma cell line growth inhibition [PI3K]
Conditions: for viability, T/C: stronger effect = lower value
Summary of the method: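 Tumor cells grown as multi-cell spheroids with HUVEC endothelial cells and MSC fibroblast-like stroma were treated with targeted agents combined with inavolisib, alpelisib, duvelisib or copanlisib. Doses fell in half-log steps from near clinical Cmax, else from 10 microM. Viability was measured.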

[1] = curve of first compound, second compound 0.00316 µM
[2] = curve of first compound, second compound 0.01 µM
[3] = curve of first compound, second compound 0.0316 µM
[4] = curve of first compound, second compound 0.1 µM
[5] = curve of first compound, second compound 0.316 µM
[6] = curve of first compound, second compound 1 µM
[7] = second compound 0.00316 µM, first compound 0.000316 µM
[8] = second compound 0.00316 µM, first compound 0.001 µM
[9] = second compound 0.00316 µM, first compound 0.00316 µM
[10] = second compound 0.00316 µM, first compound 0.01 µM
[11] = second compound 0.00316 µM, first compound 0.0316 µM
[12] = second compound 0.00316 µM, first compound 0.1 µM
[13] = second compound 0.01 µM, first compound 0.000316 µM
[14] = second compound 0.01 µM, first compound 0.001 µM
[15] = second compound 0.01 µM, first compound 0.00316 µM
[16] = second compound 0.01 µM, first compound 0.01 µM
[17] = second compound 0.01 µM, first compound 0.0316 µM
[18] = second compound 0.01 µM, first compound 0.1 µM
[19] = second compound 0.0316 µM, first compound 0.000316 µM
[20] = second compound 0.0316 µM, first compound 0.001 µM
[21] = second compound 0.0316 µM, first compound 0.00316 µM
[22] = second compound 0.0316 µM, first compound 0.01 µM
[23] = second compound 0.0316 µM, first compound 0.0316 µM
[24] = second compound 0.0316 µM, first compound 0.1 µM
[25] = second compound 0.1 µM, first compound 0.000316 µM
[26] = second compound 0.1 µM, first compound 0.001 µM
[27] = second compound 0.1 µM, first compound 0.00316 µM
[28] = second compound 0.1 µM, first compound 0.01 µM
[29] = second compound 0.1 µM, first compound 0.0316 µM
[30] = second compound 0.1 µM, first compound 0.1 µM
[31] = second compound 0.316 µM, first compound 0.000316 µM
[32] = second compound 0.316 µM, first compound 0.001 µM
[33] = second compound 0.316 µM, first compound 0.00316 µM
[34] = second compound 0.316 µM, first compound 0.01 µM
[35] = second compound 0.316 µM, first compound 0.0316 µM
[36] = second compound 0.316 µM, first compound 0.1 µM
[37] = second compound 1 µM, first compound 0.000316 µM
[38] = second compound 1 µM, first compound 0.001 µM
[39] = second compound 1 µM, first compound 0.00316 µM
[40] = second compound 1 µM, first compound 0.01 µM
[41] = second compound 1 µM, first compound 0.0316 µM
[42] = second compound 1 µM, first compound 0.1 µM
[43] = second compound 0.00316 µM, first compound 0.316 µM
[44] = second compound 0.00316 µM, first compound 1 µM
[45] = second compound 0.00316 µM, first compound 3.16 µM
[46] = second compound 0.00316 µM, first compound 10 µM
[47] = second compound 0.01 µM, first compound 0.316 µM
[48] = second compound 0.01 µM, first compound 1 µM
[49] = second compound 0.01 µM, first compound 3.16 µM
[50] = second compound 0.01 µM, first compound 10 µM
[51] = second compound 0.0316 µM, first compound 0.316 µM
[52] = second compound 0.0316 µM, first compound 1 µM
[53] = second compound 0.0316 µM, first compound 3.16 µM
[54] = second compound 0.0316 µM, first compound 10 µM
[55] = second compound 0.1 µM, first compound 0.316 µM
[56] = second compound 0.1 µM, first compound 1 µM
[57] = second compound 0.1 µM, first compound 3.16 µM
[58] = second compound 0.1 µM, first compound 10 µM
[59] = second compound 0.316 µM, first compound 0.316 µM
[60] = second compound 0.316 µM, first compound 1 µM
[61] = second compound 0.316 µM, first compound 3.16 µM
[62] = second compound 0.316 µM, first compound 10 µM
[63] = second compound 1 µM, first compound 0.316 µM
[64] = second compound 1 µM, first compound 1 µM
[65] = second compound 1 µM, first compound 3.16 µM
[66] = second compound 1 µM, first compound 10 µM
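Note: spheroids exposed to agents for seven days before read-out.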

CC(=O)c1c(C)c2cnc(Nc3ccc(N4CCNCC4)cn3)nc2n(C2CCCC2)c1=O + COc1c(OCCCN2CCOCC2)ccc2c3n(c(=NC(=O)c4cnc(N)nc4)nc12)CCN3
IC50 [1]: > 0.1 µM | IC50 [2]: > 0.1 µM | IC50 [3]: > 0.1 µM | IC50 [4]: > 0.1 µM | IC50 [5]: > 0.1 µM | IC50 [6]: 0.046 µM | viability, T/C [7]: 114% | viability, T/C [8]: 119% | viability, T/C [9]: 93.7% | viability, T/C [10]: 90.5% | viability, T/C [11]: 101% | viability, T/C [12]: 95.8% | viability, T/C [13]: 109% | viability, T/C [14]: 101% | viability, T/C [15]: 97.3% | viability, T/C [16]: 91.1% | viability, T/C [17]: 98.1% | viability, T/C [18]: 92.4% | viability, T/C [19]: 85.7% | viability, T/C [20]: 96.7% | viability, T/C [21]: 97.3% | viability, T/C [22]: 87.6% | viability, T/C [23]: 86.5% | viability, T/C [24]: 70.4% | viability, T/C [25]: 78.9% | viability, T/C [26]: 81.1% | viability, T/C [27]: 74.3% | viability, T/C [28]: 67% | viability, T/C [29]: 79.3% | viability, T/C [30]: 72.1% | viability, T/C [31]: 59% | viability, T/C [32]: 68.7% | viability, T/C [33]: 65.7% | viability, T/C [34]: 58.2% | viability, T/C [35]: 70% | viability, T/C [36]: 56.1% | viability, T/C [37]: 62% | viability, T/C [38]: 48.5% | viability, T/C [39]: 51.6% | viability, T/C [40]: 57.7% | viability, T/C [41]: 57.8% | viability, T/C [42]: 38.8%

C#Cc1c(F)ccc2cc(O)cc(-c3ncc4c(N5CC6CCC(C5)N6)nc(OCC56CCCN5CC(F)C6)nc4c3F)c12 (stereo not given) + CC(Nc1ccc2c(c1)OCCn1cc(N3C(=O)OCC3C(F)F)nc1-2)C(N)=O
IC50 [1]: > 10 µM | IC50 [2]: > 10 µM | IC50 [3]: > 10 µM | IC50 [4]: > 10 µM | IC50 [5]: > 10 µM | IC50 [6]: > 10 µM | viability, T/C [11]: 116% | viability, T/C [12]: 101% | viability, T/C [43]: 104% | viability, T/C [44]: 96.2% | viability, T/C [45]: 101% | viability, T/C [46]: 92.7% | viability, T/C [17]: 113% | viability, T/C [18]: 92.1% | viability, T/C [47]: 109% | viability, T/C [48]: 95.2% | viability, T/C [49]: 91.9% | viability, T/C [50]: 91.3% | viability, T/C [23]: 104% | viability, T/C [24]: 100% | viability, T/C [51]: 103% | viability, T/C [52]: 91.2% | viability, T/C [53]: 98.5% | viability, T/C [54]: 87.7% | viability, T/C [29]: 101% | viability, T/C [30]: 106% | viability, T/C [55]: 97% | viability, T/C [56]: 99.9% | viability, T/C [57]: 97.5% | viability, T/C [58]: 91.5% | viability, T/C [35]: 88.6% | viability, T/C [36]: 93% | viability, T/C [59]: 99.4% | viability, T/C [60]: 89.1% | viability, T/C [61]: 99.1% | viability, T/C [62]: 77.8% | viability, T/C [41]: 86% | viability, T/C [42]: 92.3% | viability, T/C [63]: 92.6% | viability, T/C [64]: 86.4% | viability, T/C [65]: 88.6% | viability, T/C [66]: 72.8%

CNC(=O)c1ccc(N2C(=S)N(c3ccc(C#N)c(C(F)(F)F)c3)C(=O)C2(C)C)cc1F + CC(Nc1ccc2c(c1)OCCn1cc(N3C(=O)OCC3C(F)F)nc1-2)C(N)=O
IC50 [1]: > 10 µM | IC50 [2]: > 10 µM | IC50 [3]: > 10 µM | IC50 [4]: > 10 µM | IC50 [5]: > 10 µM | IC50 [6]: > 10 µM | viability, T/C [11]: 108% | viability, T/C [12]: 102% | viability, T/C [43]: 107% | viability, T/C [44]: 107% | viability, T/C [45]: 110% | viability, T/C [46]: 120% | viability, T/C [17]: 115% | viability, T/C [18]: 100% | viability, T/C [47]: 107% | viability, T/C [48]: 101% | viability, T/C [49]: 108% | viability, T/C [50]: 117% | viability, T/C [23]: 106% | viability, T/C [24]: 101% | viability, T/C [51]: 94.5% | viability, T/C [52]: 103% | viability, T/C [53]: 112% | viability, T/C [54]: 112% | viability, T/C [29]: 94.1% | viability, T/C [30]: 93.9% | viability, T/C [55]: 103% | viability, T/C [56]: 98.2% | viability, T/C [57]: 105% | viability, T/C [58]: 110% | viability, T/C [35]: 94.7% | viability, T/C [36]: 96.8% | viability, T/C [59]: 99.6% | viability, T/C [60]: 96.8% | viability, T/C [61]: 102% | viability, T/C [62]: 102% | viability, T/C [41]: 83.9% | viability, T/C [42]: 100% | viability, T/C [63]: 94.9% | viability, T/C [64]: 92.1% | viability, T/C [65]: 98.6% | viability, T/C [66]: 106%

CC(Cn1ccc(-c2ccc(C#N)c(Cl)c2)n1)NC(=O)c1cc(C(C)O)[nH]n1 (stereo not given)
viability, T/C (compound 0.0316 µM): 92.4% and 103% (2×) and 102% | viability, T/C (compound 0.1 µM): 107% [middle of 4 runs] | viability, T/C (compound 0.316 µM): 102% [middle of 4 runs] | viability, T/C (compound 1 µM): 95.1% and 107% (2×) and 91.3% | viability, T/C (compound 3.16 µM): 108% and 104% (2×) and 96.2% | viability, T/C (compound 10 µM): 104% [middle of 4 runs] | IC50 (curve of compound): > 10 µM

CC(C)n1nc(-c2ccc3oc(N)nc3c2)c2c(N)ncnc21 + CC(Nc1ccc2c(c1)OCCn1cc(N3C(=O)OCC3C(F)F)nc1-2)C(N)=O
IC50 [1]: > 0.1 µM | IC50 [2]: > 0.1 µM | IC50 [3]: > 0.1 µM | IC50 [4]: > 0.1 µM | IC50 [5]: > 0.1 µM | IC50 [6]: > 0.1 µM | viability, T/C [7]: 106% | viability, T/C [8]: 93.9% | viability, T/C [9]: 97.1% | viability, T/C [10]: 94.7% | viability, T/C [11]: 90.3% | viability, T/C [12]: 78.8% | viability, T/C [13]: 115% | viability, T/C [14]: 100% | viability, T/C [15]: 103% | viability, T/C [16]: 91.1% | viability, T/C [17]: 96.1% | viability, T/C [18]: 77.2% | viability, T/C [19]: 99% | viability, T/C [20]: 98.9% | viability, T/C [21]: 99.4% | viability, T/C [22]: 94.5% | viability, T/C [23]: 96.5% | viability, T/C [24]: 74% | viability, T/C [25]: 100% | viability, T/C [26]: 102% | viability, T/C [27]: 95.4% | viability, T/C [28]: 91.3% | viability, T/C [29]: 93.1% | viability, T/C [30]: 71.5% | viability, T/C [31]: 93.1% | viability, T/C [32]: 93.2% | viability, T/C [33]: 99.7% | viability, T/C [34]: 88.2% | viability, T/C [35]: 79.1% | viability, T/C [36]: 77.7% | viability, T/C [37]: 87.2% | viability, T/C [38]: 89.7% | viability, T/C [39]: 81.3% | viability, T/C [40]: 82.2% | viability, T/C [41]: 80.9% | viability, T/C [42]: 67.1%
